Measurements as given in patent US8329739B2, “Phenylimidazole compounds” (Otsuka Pharmaceutical Factory, Inc., priority 2009, dated 2012).
Structures can show the parent of a compound that is named as a salt.

Experiments:
[1] = target: T1, LPL (lipoprotein lipase) (Mus musculus, UniProt P11152); experiment: Confirmation test of LPL activation effect in mouse skeletal muscle cells (C2C12 cells); assay type: cell-based; settings: 8 hours exposure, vs control group
T1 construct: endogenous in cells; host or cells: C2C12 cells, differentiated
T1 sequence (P11152 28-474): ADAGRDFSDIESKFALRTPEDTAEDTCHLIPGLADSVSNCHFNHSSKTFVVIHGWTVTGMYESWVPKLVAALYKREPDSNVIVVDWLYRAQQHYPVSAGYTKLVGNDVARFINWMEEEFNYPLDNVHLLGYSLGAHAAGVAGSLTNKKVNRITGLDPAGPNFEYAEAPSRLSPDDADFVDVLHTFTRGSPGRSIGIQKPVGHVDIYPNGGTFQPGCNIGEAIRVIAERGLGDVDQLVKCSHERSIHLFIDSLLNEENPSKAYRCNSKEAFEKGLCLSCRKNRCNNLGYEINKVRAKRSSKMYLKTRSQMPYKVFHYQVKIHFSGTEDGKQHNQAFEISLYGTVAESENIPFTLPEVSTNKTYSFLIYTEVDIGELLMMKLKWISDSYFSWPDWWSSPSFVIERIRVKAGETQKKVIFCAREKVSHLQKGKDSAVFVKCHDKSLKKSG
Method: Human skeletal muscle cells (human skeletal muscle myoblasts) or mouse skeletal muscle cells (C2C12 cells) that were seeded onto plates, cultured, and differentiated were exposed to a 0.3% dimethyl sulfoxide-containing culture medium in which the compound of the present invention was dissolved (concentration: 10 μM or 30 μM). The medium was removed 8 hours after exposure, 10 mM of Tris-HCl buffer (150 mM NaCl, 10 μ/mL; containing heparin sodium) was added to the cells, and the cells were incubated at 37° C. in the presence of 5% CO2 for 10 minutes. LPL activity in the supernatant was measured using an LPL activity assay kit (made by Roar Biomedical Inc.). LPL activity was evaluated based on the increase in fluorescence intensity 10 to 70 minutes after mixing the supernatant with the LPL substrate. The mean value of the increase in fluorescence intensity of the cells exposed to a 0.3% dimethyl sulfoxide-containing culture medium […] was used as mean value of the control group. Note that the compounds of Examples 18, 19, 32, 45 and 57 were tested using human skeletal muscle cells, and other compounds were tested using mouse skeletal muscle cells. The rate of increase (%) was calculated from the measured values of LPL activity in the control group and the experimental group, according to the following formula. Rate of increase in LPL activity (%)=[(mean value of the experimental group)−(mean value of the control group)]/(mean value of the control group)×100

| SMILES | Rate of increase in LPL activity ([1]; amount of addition 10 μM) [%] | Rate of increase in LPL activity ([1]; amount of addition 30 μM) [%] | melting point [°C] |
| --- | --- | --- | --- |
| COc1cc(-c2c[nH]c(-c3ccccc3)n2)ccc1OCc1ccc(Br)cc1F.Cl [Example 3] | 43 | 62 | 224 to 226 |
| COc1cc(-c2c[nH]c(-c3ccc(F)cc3)n2)ccc1OCc1cccc(C#N)c1.Cl [Example 61] | 53 | 92 | 242 to 244 |
| COC(=O)c1ccc(-c2nc(-c3ccc(OCc4ccccc4)c(OC)c3)c[nH]2)cc1.Cl [Example 38] | 35 | 100 | 222 to 227 |
| COc1cccc(-c2nc(-c3ccc(OCc4ccccc4)cc3OC)c[nH]2)c1.Cl [Example 130] | 9 | 170 | 236 to 238 |
| COc1cc(-c2c[nH]c(-c3ccc(C)c(F)c3)n2)ccc1OCc1ccccc1.Cl [Example 16] | 54 | 119 | 236 to 237 |
| COc1cc(OCc2ccc(Cl)cc2F)ccc1-c1c[nH]c(-c2cccc(C)c2)n1 [Example 135] |  |  | 115 to 120 |
| COc1cc(OCc2ccc(Br)cc2F)ccc1-c1c[nH]c(-c2ccc(C(=O)O)cc2)n1.Cl [Example 94] | 9 | 15 | > 250 |
| COc1cc(OCc2ccc(C#N)cc2)ccc1-c1c[nH]c(-c2ccc(Cl)cc2)n1 [Example 76] | 115 | 263 | 186 to 187 |
| COc1ccc(-c2nc(-c3ccc(OCc4ccc(Br)cc4F)cc3OC)c[nH]2)cc1.Cl [Example 86] | 40 | 375 | > 250 |
| COc1ccc(-c2nc(-c3ccc(OCc4ccc(Cl)cc4)cc3OC)c[nH]2)cc1 [Example 104] | 74 | 365 | 170 to 173 |
| COc1cc(OCc2ccc(C#N)cc2)ccc1-c1c[nH]c(-c2ccccc2)n1 [Example 12] |  |  | 99 to 103 |
| COc1cc(OCc2ccc(C#N)cc2)ccc1-c1c[nH]c(-c2cccc(C)c2)n1.Cl |  |  | 243 to 246 |
| COc1cc(OCc2ccc(Cl)cc2F)ccc1-c1c[nH]c(-c2ccc(F)c(F)c2)n1.Cl |  |  | 251 to 255 |
| COc1cc(OCc2ccc(C#N)cc2)ccc1-c1c[nH]c(-c2cccc(F)c2)n1 [Example 60] |  |  | 257 to 260 |
| COc1cc(-c2c[nH]c(-c3ccc(C(F)(F)F)cc3)n2)ccc1OCc1ccc(Br)cc1F (as salt: hydrochloride) [Example 1, 4-[4-(4-bromo-2-fluorobenzyloxy)-3-methoxyphenyl]-2-[4-(trifluoromethyl)phenyl]-1H-imidazole hydrochloride] |  |  | 174 to 175 |
| COc1cc(OCc2ccc(Br)cc2F)ccc1-c1c[nH]c(-c2ccc(F)c(F)c2)n1 [Example 89] |  |  | 263 to 265 |
| COc1cc(OCc2ccc(C(F)(F)F)cc2)ccc1-c1c[nH]c(-c2ccc(C(F)(F)F)cc2)n1 [Example 167] | 37 | 104 |  |
| COc1cc(-c2c[nH]c(-c3ccc(C(F)(F)F)cc3)n2)ccc1O [Example 41] |  |  | 197 to 198 |
| COc1cc(-c2c[nH]c(-c3ccc(C(=O)O)cc3)n2)ccc1OCc1ccccc1.Cl |  |  | 241 to 243 |

| SMILES | Rate of increase in LPL activity ([1]; amount of addition 10 μM) [%] | Rate of increase in LPL activity ([1]; amount of addition 30 μM) [%] | melting point [°C] |
| --- | --- | --- | --- |
| COc1cc(O)ccc1-c1c[nH]c(-c2ccccc2)n1 [Example 105] |  |  | 232 to 235 |
| COc1cc(-c2c[nH]c(C(C)C)n2)ccc1OCc1ccccc1 [Example 29] |  |  | 148 to 152 |
| COc1cc(OCc2ccccc2)ccc1-c1c[nH]c(-c2cccc(C)c2)n1.Cl |  |  | 194 to 196 |
| COc1cc(OCc2ccccc2)ccc1-c1c[nH]c(-c2ccc(C(C)(C)C)cc2)n1 [Example 129] |  |  | 227 to 229 |
| COc1cc(OCc2ccc(Cl)cc2F)ccc1-c1c[nH]c(-c2ccc(Cl)c(Cl)c2)n1.Cl |  |  | 254 to 258 |
| COc1cc(-c2c[nH]c(C)n2)ccc1OCc1ccccc1 [Example 40] |  |  | 159 to 163 |
| COc1cc(-c2cn(C)c(-c3ccccc3)n2)ccc1OCc1ccccc1 [Example 8] |  |  | 146 to 147 |
| COc1cc(-c2c[nH]c(-c3cccs3)n2)ccc1OCc1ccc(C#N)cc1 [Example 64] |  |  | 192 to 193 |
| COc1cc(-c2c[nH]c(-c3ccc(C(F)(F)F)cc3)n2)ccc1OCc1ccc(C(F)(F)F)cc1 [Example 165] | 38 | 476 |  |
| COc1cc(O)ccc1-c1c[nH]c(-c2ccc(C)cc2)n1 [Example 108] |  |  | 260 to 262 |
| COc1cc(OCc2ccccc2)ccc1-c1c[nH]c(-c2cc(Cl)cc(Cl)c2)n1 [Example 125] |  |  | 161 to 163 |
| COc1cccc(-c2nc(-c3ccc(OCc4ccc(Cl)cc4)cc3OC)c[nH]2)c1.Cl |  |  | 256 to 258 |
| COc1cc(OCc2ccccc2)ccc1-c1c[nH]c(-c2cccs2)n1.Cl |  |  | 139 to 142 |
| COc1cc(OCc2ccc(C#N)cc2)ccc1-c1c[nH]c(-c2cccs2)n1 [Example 21] |  |  | 193 to 196 |
| COc1cc(-c2cnc(-c3cccs3)[nH]2)ccc1OCc1ccccc1 [Example 14] |  |  | 178 to 181 |
| COc1cc(OCc2ccc(Cl)cc2F)ccc1-c1c[nH]c(-c2ccc(C)cc2)n1 [Example 136] |  |  | 152 to 155 |
| COc1cc(OCc2ccc(Cl)cc2F)ccc1-c1c[nH]c(-c2ccc(Cl)cc2)n1 [Example 131] |  |  | 191 to 194 |
| CCOC(=O)c1ccc(-c2nc(-c3ccc(OCc4ccccc4)c(OC)c3)c[nH]2)cc1.Cl |  |  | 211 to 213 |
| COc1ccc(-c2nc(-c3ccc(OCc4ccccc4)c(OC)c3)c[nH]2)cc1 [Example 27] |  |  | 146 to 148 |

| SMILES | Rate of increase in LPL activity ([1]; amount of addition 10 μM) [%] | Rate of increase in LPL activity ([1]; amount of addition 30 μM) [%] | melting point [°C] |
| --- | --- | --- | --- |
| COc1cc(OCc2ccc(Br)cc2F)ccc1-c1c[nH]c(-c2cccc(F)c2)n1.Cl |  |  | 240 to 245 |
| COc1cc(-c2c[nH]c(-c3ccc(F)cc3)n2)ccc1O [Example 44] |  |  | 116 to 123 |
| COc1cc(-c2nc(-c3ccc(C(F)(F)F)cc3)[nH]c2C)ccc1OCc1ccccc1 [Example 34] |  |  | 160 to 165 |
| COc1cc(-c2c[nH]c(-c3cccc(F)c3)n2)ccc1OCc1ccc(Br)cc1F.Cl |  |  | 244 to 247 |
| COc1cc(OCc2ccccc2)ccc1-c1c[nH]c(-c2cccc(Cl)c2)n1 [Example 122] |  |  | 142 to 145 |
| COc1cc(OCc2ccc(C#N)cc2)ccc1-c1c[nH]c(-c2cc(Cl)cc(Cl)c2)n1.Cl |  |  | > 250 |
| COc1cc(-c2c[nH]c(C(C)C)n2)ccc1OCc1ccc(Cl)cc1 [Example 35] |  |  | 126 to 128 |
| COc1cc(-c2cn(C)c(-c3ccc(C(F)(F)F)cc3)n2)ccc1OCc1ccccc1 [Example 6] |  |  | 138 to 139 |
| COc1cc(O)ccc1-c1c[nH]c(-c2ccc(F)cc2)n1 [Example 107] |  |  | > 250 |
| COc1cc(OCc2ccc(Br)cc2F)ccc1-c1c[nH]c(-c2cccc(C)c2)n1 [Example 95] |  |  | 120 to 123 |
| COc1cc(-c2c[nH]c(-c3ccsc3)n2)ccc1OCc1ccccc1 [Example 25] |  |  | 132 to 135 |
| COc1cc(OCc2ccc(Cl)cc2)ccc1-c1c[nH]c(-c2cccc(C)c2)n1.Cl |  |  | 217 to 220 |
| COc1cc(-c2c[nH]c(-c3ccc(F)cc3)n2)ccc1OCc1ccc(C(F)(F)F)cc1 [Example 164] | 4 | 228 |  |
| COc1cc(-c2c[nH]c(-c3ccc(C(F)(F)F)cc3)n2)ccc1OCc1ccc(Br)cc1F [Example 1, 4-[4-(4-bromo-2-fluorobenzyloxy)-3-methoxyphenyl]-2-[4-(trifluoromethyl)phenyl]-1H-imidazole hydrochloride] | 64 | 360 |  |
| COc1cc(O)ccc1-c1c[nH]c(-c2ccc(C(F)(F)F)cc2)n1 [Example 106] |  |  | > 250 |
| COc1cc(OCc2ccc(Cl)cc2)ccc1-c1c[nH]c(-c2cccs2)n1 [Example 22] |  |  | 107 to 109 |
| COc1cc(-c2c[nH]c(-c3ccccc3)n2)ccc1OCc1ccc(C#N)cc1 [Example 63] |  |  | 193 to 196 |
| COc1cc(OCc2ccc(Cl)cc2)ccc1-c1c[nH]c(-c2ccc(C)cc2)n1.Cl |  |  | 241 to 244 |
